Assay results as given in US9193733B2, “Piperidinylcyclobutyl substituted pyrrolopyridine and pyrrolopyrimidine derivatives as JAK inhibitors” (Incyte Corporation, priority 2012, dated 2015).
Structures can show the parent of a compound that is named as a salt.

Key:
Type in all cases: biochemical
[1] = target: T1, human JAK1 (a.a. 837-1142) catalytic domain (Homo sapiens, UniProt P23458); assay: In vitro JAK kinase assay (HTRF, phosphorylation of a biotinylated peptide), JAK1; conditions: 1 mM ATP
T1 construct: human JAK1 (a.a. 837-1142) and JAK2 (a.a. 828-1132); His tag (N); made in house; host or cells: insect cells (baculovirus)
T1 sequence (P23458 849-1154): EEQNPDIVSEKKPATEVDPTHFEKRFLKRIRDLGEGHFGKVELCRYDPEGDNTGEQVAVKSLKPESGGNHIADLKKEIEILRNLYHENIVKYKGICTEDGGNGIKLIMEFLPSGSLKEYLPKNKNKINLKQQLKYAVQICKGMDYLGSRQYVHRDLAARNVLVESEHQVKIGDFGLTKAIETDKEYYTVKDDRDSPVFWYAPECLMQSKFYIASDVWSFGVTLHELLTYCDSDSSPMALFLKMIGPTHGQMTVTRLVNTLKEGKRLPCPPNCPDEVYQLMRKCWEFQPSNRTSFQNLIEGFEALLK
Protocol: (§1) Compounds herein were tested for inhibitory activity of JAK targets according to the following in vitro assay described in Park et al., Analytical Biochemistry 1999, 269, 94-104. The catalytic domains of human JAK1 (a.a. 837-1142) and JAK2 (a.a. 828-1132) with an N-terminal His tag were expressed using baculovirus in insect cells and purified. The catalytic activity of JAK1 and JAK2 was assayed by measuring the phosphorylation of a biotinylated peptide. The phosphorylated peptide was detected by homogenous time resolved fluorescence (HTRF). IC50s of compounds were measured for each kinase in the 40 microL reactions that contain the enzyme, ATP and 500 nM peptide in 50 mM Tris (pH 7.8) buffer with 100 mM NaCl, 5 mM DTT, and 0.1 mg/mL (0.01%) BSA. For the 1 mM IC50 measurements, ATP concentration in the reactions was 1 mM. Reactions were carried out at room temperature for 1 hour and then stopped with 20 μL 45 mM EDTA, 300 nM SA-APC, 6 nM Eu-Py20 in assay buffer (Perkin Elmer, Boston, Mass.). Binding to the Europium labeled antibody took place for 40 minutes and HTRF signal was measured on a Fusion plate reader (Perkin Elmer, Boston, Mass.). See Table A for data related to compounds of the Examples (at 1 mM). Data is indicated as ranges: <20 nM (+), 20 to <150 nM (++), 150 to 500 nM (+++).

[2] = tested on: human JAK1 (a.a. 837-1142) catalytic domain; assay: as above; conditions: ratio of JAK2 IC50 to JAK1 IC50, 1 mM ATP
Protocol: as §1

[3] = target: T2, human JAK2 (a.a. 828-1132) catalytic domain (Homo sapiens, UniProt O60674); assay: In vitro JAK kinase assay (HTRF, phosphorylation of a biotinylated peptide), JAK2; conditions: 1 mM ATP
T2 construct: human JAK1 (a.a. 837-1142) and JAK2 (a.a. 828-1132); His tag (N); made in house; host or cells: insect cells (baculovirus)
T2 sequence (O60674 828-1132): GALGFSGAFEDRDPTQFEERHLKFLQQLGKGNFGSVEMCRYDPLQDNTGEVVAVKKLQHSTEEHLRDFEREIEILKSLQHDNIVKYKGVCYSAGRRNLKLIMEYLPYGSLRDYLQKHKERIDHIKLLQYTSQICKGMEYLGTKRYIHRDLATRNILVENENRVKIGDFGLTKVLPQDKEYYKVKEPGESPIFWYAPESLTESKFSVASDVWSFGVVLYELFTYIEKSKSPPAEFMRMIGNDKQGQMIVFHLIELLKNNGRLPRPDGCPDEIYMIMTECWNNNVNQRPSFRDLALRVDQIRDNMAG
Protocol: as §1

Compound	IC50 [1] [nM]	JAK2/JAK1 [2]	IC50 [3] [nM]
N#CC[C@]1(n2cc(-c3ncnc4[nH]ccc34)cn2)C[C@H](N2CCC(Oc3cc(CNC4CCOCC4)cc(C(F)(F)F)n3)CC2)C1 [Example 5, [trans-1-[4-(7H-pyrrolo[2,3-d]pyrimidin-4-yl)-1H-pyrazol-1-yl]-3-(4-{[4-[(tetrahydro-2H-pyran-4-ylamino)methyl]-6-(trifluoromethyl)pyridin-2-yl]oxy}piperidin-1-yl)cyclobutyl]acetonitrile]	< 20	>10	20 to 150
N#CC[C@]1(n2cc(-c3ncnc4[nH]ccc34)cn2)C[C@H](N2CCC(Nc3cc(CO)cc(C(F)(F)F)n3)CC2)C1 [Example 31, {trans-3-(4-{[4-(hydroxymethyl)-6-(trifluoromethyl)pyridin-2-yl]amino}piperidin-1-yl)-1-[4-(7H-pyrrolo[2,3-d]pyrimidin-4-yl)-1H-pyrazol-1-yl]cyclobutyl}acetonitrile]	< 20	>10	20 to 150
N#CC[C@]1(n2cc(-c3ncnc4[nH]ccc34)cn2)C[C@H](N2CCC(Nc3cc(CNCCO)nc(C(F)(F)F)n3)CC2)C1 [Example 29, {trans-3-(4-{[6-{[(2-hydroxyethyl)amino]methyl}-2-(trifluoromethyl)pyrimidin-4-yl]amino}piperidin-1-yl)-1-[4-(7H-pyrrolo[2,3-d]pyrimidin-4-yl)-1H-pyrazol-1-yl]cyclobutyl}acetonitrile]	< 20	>10	20 to 150
CN(CCO)Cc1cc(OC2CCN([C@H]3C[C@](CC#N)(n4cc(-c5ncnc6[nH]ccc56)cn4)C3)CC2)nc(C(F)(F)F)c1 [Example 17, {trans-3-(4-{[4-{[(2-hydroxyethyl)(methyl)amino]methyl}-6-(trifluoromethyl)pyridin-2-yl]oxy}piperidin-1-yl)-1-[4-(7H-pyrrolo[2,3-d]pyrimidin-4-yl)-1H-pyrazol-1-yl]cyclobutyl}acetonitrile]	< 20	>10	20 to 150
CN(CCO)Cc1cc(NC2CCN([C@H]3C[C@](CC#N)(n4cc(-c5ncnc6[nH]ccc56)cn4)C3)CC2)nc(C(F)(F)F)c1 [Example 42, {trans-3-(4-{[4-{[(2-hydroxyethyl)(methyl)amino]methyl}-6-(trifluoromethyl)pyridin-2-yl]amino}piperidin-1-yl)-1-[4-(7H-pyrrolo[2,3-d]pyrimidin-4-yl)-1H-pyrazol-1-yl]cyclobutyl}acetonitrile]	< 20	>10	20 to 150
N#CC[C@]1(n2cc(-c3ncnc4[nH]ccc34)cn2)C[C@H](N2CCC(Oc3cc(CNC4COC4)cc(C(F)(F)F)n3)CC2)C1 [Example 11, {trans-3-(4-{[4-[(oxetan-3-ylamino)methyl]-6-(trifluoromethyl)pyridin-2-yl]oxy}piperidin-1-yl)-1-[4-(7H-pyrrolo[2,3-d]pyrimidin-4-yl)-1H-pyrazol-1-yl]cyclobutyl}acetonitrile]	< 20	>10	20 to 150
N#CC[C@]1(n2cc(-c3ncnc4[nH]ccc34)cn2)C[C@H](N2CCC(Oc3cc(CN[C@@H]4CCOC4)cc(C(F)(F)F)n3)CC2)C1 [Example 8, [trans-1-[4-(7H-pyrrolo[2,3-d]pyrimidin-4-yl)-1H-pyrazol-1-yl]-3-(4-{[4-{[(3R)-tetrahydrofuran-3-ylamino]methyl}-6-(trifluoromethyl)pyridin-2-yl]oxy}piperidin-1-yl)cyclobutyl]acetonitrile]	< 20	>10	20 to 150
CN(Cc1cc(NC2CCN([C@H]3C[C@](CC#N)(n4cc(-c5ncnc6[nH]ccc56)cn4)C3)CC2)nc(C(F)(F)F)c1)C1CC1 [Example 37, {trans-3-(4-{[4-{[cyclopropyl(methyl)amino]methyl}-6-(trifluoromethyl)pyridin-2-yl]amino}piperidin-1-yl)-1-[4-(7H-pyrrolo[2,3-d]pyrimidin-4-yl)-1H-pyrazol-1-yl]cyclobutyl}acetonitrile]	< 20	>10	150 to 500
N#CC[C@]1(n2cc(-c3ncnc4[nH]ccc34)cn2)C[C@H](N2CCC(Oc3cc(CN[C@H]4C[C@@H](O)C4)cc(C(F)(F)F)n3)CC2)C1 [Example 18, {trans-3-(4-{[4-{[(cis-3-hydroxycyclobutyl)amino]methyl}-6-(trifluoromethyl)pyridin-2-yl]oxy}piperidin-1-yl)-1-[4-(7H-pyrrolo[2,3-d]pyrimidin-4-yl)-1H-pyrazol-1-yl]cyclobutyl}acetonitrile 3.6 x trifluoroacetate salt]	< 20	>10	20 to 150
CN(c1cc(CO)cc(C(F)(F)F)n1)C1CCN([C@H]2C[C@](CC#N)(n3cc(-c4ncnc5[nH]ccc45)cn3)C2)CC1 [Example 47, {trans-3-{4-[[4-(hydroxymethyl)-6-(trifluoromethyl)pyridin-2-yl](methyl)amino]piperidin-1-yl}-1-[4-(7H-pyrrolo[2,3-d]pyrimidin-4-yl)-1H-pyrazol-1-yl]cyclobutyl}acetonitrile]	< 20	>10	150 to 500
N#CC[C@]1(n2cc(-c3ncnc4[nH]ccc34)cn2)C[C@H](N2CCC(Oc3cc(CN4CC5(COC5)C4)cc(C(F)(F)F)n3)CC2)C1 [Example 6, {trans-3-(4-{[4-(2-oxa-6-azaspiro[3.3]hept-6-ylmethyl)-6-(trifluoromethyl)pyridin-2-yl]oxy}piperidin-1-yl)-1-[4-(7H-pyrrolo[2,3-d]pyrimidin-4-yl)-1H-pyrazol-1-yl]cyclobutyl}acetonitrile]	< 20	>10	20 to 150
N#CC[C@]1(n2cc(-c3ncnc4[nH]ccc34)cn2)C[C@H](N2CCC(Nc3cc(CN4CCC(F)(F)C4)cc(C(F)(F)F)n3)CC2)C1 [Example 36, {trans-3-(4-{[4-[(3,3-difluoropyrrolidin-1-yl)methyl]-6-(trifluoromethyl)pyridin-2-yl]amino}piperidin-1-yl)-1-[4-(7H-pyrrolo[2,3-d]pyrimidin-4-yl)-1H-pyrazol-1-yl]cyclobutyl}acetonitrile]	< 20	>10	150 to 500
N#CC[C@]1(n2cc(-c3ncnc4[nH]ccc34)cn2)C[C@H](N2CCC(Nc3cc(CNCCO)cc(C(F)(F)F)n3)CC2)C1 [Example 33, {trans-3-(4-{[4-{[(2-hydroxyethyl)amino]methyl}-6-(trifluoromethyl)pyridin-2-yl]amino}piperidin-1-yl)-1-[4-(7H-pyrrolo[2,3-d]pyrimidin-4-yl)-1H-pyrazol-1-yl]cyclobutyl}acetonitrile]	< 20	>10	20 to 150
{cis-3-(4-{[4-(2-hydroxyethyl)-6-(trifluoromethyl)pyridin-2-yl]amino}piperidin-1-yl)-1-[4-(7H-pyrrolo[2,3-d]pyrimidin-4-yl)-1H-pyrazol-1-yl]cyclobutyl}acetonitrile and {trans-3-(4-{[4-(2-hydroxyethyl)-6-(trifluoromethyl)pyridin-2-yl]amino}piperidin-1-yl)-1-[4-(7H-pyrrolo[2,3-d]pyrimidin-4-yl)-1H-pyrazol-1-yl]cyclobutyl}acetonitrile [Example 38]	< 20	>10	20 to 150
C[C@@H](CO)NCc1cc(OC2CCN([C@H]3C[C@](CC#N)(n4cc(-c5ncnc6[nH]ccc56)cn4)C3)CC2)nc(C(F)(F)F)c1 [Example 1, {trans-3-(4-{[4-({[(1S)-2-hydroxy-1-methylethyl]amino}methyl)-6-(trifluoromethyl)pyridin-2-yl]oxy}piperidin-1-yl)-1-[4-(7H-pyrrolo[2,3-d]pyrimidin-4-yl)-1H-pyrazol-1-yl]cyclobutyl}acetonitrile]	< 20	>10	20 to 150
CC1(C)CN(C(=O)c2cc(OC3CCN([C@H]4C[C@](CC#N)(n5cc(-c6ncnc7[nH]ccc67)cn5)C4)CC3)nc(C(F)(F)F)c2)C1 [Example 26, {trans-3-(4-{[4-[(3,3-dimethylazetidin-1-yl)carbonyl]-6-(trifluoromethyl)pyridin-2-yl]oxy}piperidin-1-yl)-1-[4-(7H-pyrrolo[2,3-d]pyrimidin-4-yl)-1H-pyrazol-1-yl]cyclobutyl}acetonitrile]	< 20	>10	150 to 500
N#CC[C@]1(n2cc(-c3ncnc4[nH]ccc34)cn2)C[C@H](N2CCC(Oc3cc(CCO)cc(C(F)(F)F)n3)CC2)C1 [Example 20, {trans-3-(4-{[4-(2-hydroxyethyl)-6-(trifluoromethyl)pyridin-2-yl]oxy}piperidin-1-yl)-1-[4-(7H-pyrrolo[2,3-d]pyrimidin-4-yl)-1H-pyrazol-1-yl]cyclobutyl}acetonitrile]	< 20	>10	20 to 150
